Columns and labels:
Adenosine A2A = target: T1, Adenosine A2A (Homo sapiens, UniProt P29274); assay: Ligand binding assay (High-throughput Profile, CEREP)
T1 construct: CEREP, France (contract assay, High-throughput Profile)
Method: (§1) To determine the pharmacological profile and potential targets of LC-02, 80 binding assays were performed (High-throughput Profile, CEREP, France). LC-02 was evaluated at a single concentration in these specific binding assays. […] A cutoff of 25% is considered as a moderate effect.
(§2) Compound LC-02 (10 μM) was subjected to ligand binding assays with human A3 and rat kappa receptor overexpressing cells. Results are expressed as a percent of control specific agonist response [100-(measured specific response/control specific agonist response)×100] obtained in the presence of LC-02.

Adenosine A1 = target: T2, Adenosine A1 (Homo sapiens, UniProt P30542); assay: as above
T2 construct: CEREP, France (contract assay, High-throughput Profile)
T2 sequence (P30542 1-326): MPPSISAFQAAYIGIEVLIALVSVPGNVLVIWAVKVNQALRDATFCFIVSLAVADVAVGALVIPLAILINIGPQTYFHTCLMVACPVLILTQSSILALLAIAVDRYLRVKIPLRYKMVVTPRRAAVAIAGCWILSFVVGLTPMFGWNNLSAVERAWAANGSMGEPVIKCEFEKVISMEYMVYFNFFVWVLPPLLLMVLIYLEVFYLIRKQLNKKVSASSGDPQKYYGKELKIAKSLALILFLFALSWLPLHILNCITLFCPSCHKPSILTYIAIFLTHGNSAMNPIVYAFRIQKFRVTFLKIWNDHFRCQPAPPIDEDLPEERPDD
Method: as §1, §2

adenosine A3 receptor = target: T3, adenosine A3 receptor (Homo sapiens, UniProt P0DMS8); assay: as above; conditions: [125I]AB-MECA, human A3 overexpressing cells
T3 sequence (P0DMS8 1-318): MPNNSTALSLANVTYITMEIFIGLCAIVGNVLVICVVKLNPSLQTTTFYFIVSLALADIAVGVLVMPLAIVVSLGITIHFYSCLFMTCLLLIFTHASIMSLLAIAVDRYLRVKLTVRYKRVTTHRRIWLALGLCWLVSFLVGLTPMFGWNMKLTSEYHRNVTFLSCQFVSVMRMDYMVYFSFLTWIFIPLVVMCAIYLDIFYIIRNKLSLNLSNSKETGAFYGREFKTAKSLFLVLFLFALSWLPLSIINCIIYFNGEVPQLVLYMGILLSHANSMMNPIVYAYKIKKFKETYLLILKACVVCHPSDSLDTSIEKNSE
Method: as §1, §2

Opioid (delta) = target: T4, Opioid (delta) (Homo sapiens, UniProt P41143); assay: as above
T4 construct: CEREP, France (contract assay, High-throughput Profile)
T4 sequence (P41143 whole entry): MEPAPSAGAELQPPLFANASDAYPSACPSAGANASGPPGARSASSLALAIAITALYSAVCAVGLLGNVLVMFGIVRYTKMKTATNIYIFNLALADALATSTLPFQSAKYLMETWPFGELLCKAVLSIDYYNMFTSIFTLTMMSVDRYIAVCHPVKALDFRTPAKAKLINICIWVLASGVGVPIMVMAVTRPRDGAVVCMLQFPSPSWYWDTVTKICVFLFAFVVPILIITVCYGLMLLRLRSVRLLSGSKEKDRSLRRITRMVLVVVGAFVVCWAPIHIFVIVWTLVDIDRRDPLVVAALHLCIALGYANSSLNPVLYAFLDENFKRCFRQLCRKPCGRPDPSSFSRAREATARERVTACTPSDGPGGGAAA
Method: as §1, §2

Opioid (mu) = target: T5, Opioid (mu) (Homo sapiens, UniProt P35372); assay: as above
T5 construct: CEREP, France (contract assay, High-throughput Profile)
T5 sequence (P35372 whole entry): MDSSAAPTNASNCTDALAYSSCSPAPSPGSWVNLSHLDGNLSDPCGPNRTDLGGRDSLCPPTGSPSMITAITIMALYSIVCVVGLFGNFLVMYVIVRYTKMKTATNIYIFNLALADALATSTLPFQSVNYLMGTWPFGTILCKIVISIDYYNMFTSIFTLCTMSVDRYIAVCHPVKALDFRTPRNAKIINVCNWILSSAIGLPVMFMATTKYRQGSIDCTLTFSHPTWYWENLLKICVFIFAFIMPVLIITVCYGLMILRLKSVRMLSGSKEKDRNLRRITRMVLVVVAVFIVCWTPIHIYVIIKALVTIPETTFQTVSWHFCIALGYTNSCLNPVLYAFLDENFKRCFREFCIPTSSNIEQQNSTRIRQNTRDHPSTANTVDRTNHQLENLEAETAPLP
Method: as §1, §2

opioid kappa receptor = opioid kappa receptor (Rattus norvegicus, UniProt P34975); assay: as above
opioid kappa receptor, sequence (P34975 whole entry): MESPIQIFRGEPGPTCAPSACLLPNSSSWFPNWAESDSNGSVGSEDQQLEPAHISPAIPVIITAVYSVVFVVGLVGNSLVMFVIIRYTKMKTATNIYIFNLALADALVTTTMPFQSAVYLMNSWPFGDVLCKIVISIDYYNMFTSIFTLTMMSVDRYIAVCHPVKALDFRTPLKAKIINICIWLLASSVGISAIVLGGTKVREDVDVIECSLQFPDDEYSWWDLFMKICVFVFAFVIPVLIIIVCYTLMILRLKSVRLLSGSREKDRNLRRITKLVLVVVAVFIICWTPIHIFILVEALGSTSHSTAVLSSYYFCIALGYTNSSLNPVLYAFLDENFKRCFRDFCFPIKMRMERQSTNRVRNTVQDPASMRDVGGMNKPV
Method: as §1, §2

mice = assay: Open Field Test (OFT); format: in vivo; conditions: 100 mg/kg p.o., 7 times, vs control group
MCAO rats = assay: Middle cerebral artery occlusion (MCAO) model: mNSS, infarct volume, edema volume; format: in vivo, rat; conditions: for edema volume (% of the ipsilateral hemisphere) / infarct volume: 2 h MCAO; for infarct volume: mean±S.E.M.
Method: Before surgery, male rats were 259-354 g fasted overnight with free access to water. Briefly, rats were anesthetized with chloral hydrate (400 mg/kg, ip). Through a midline neck incision, the right common and external carotid artery were isolated from muscles and coagulated. A suture with a blunted tip was inserted into the internal carotid through the external carotid artery stump and advanced up to 21 mm or till resistance was […]. A thermostatically regulated heating pad was used to maintain temperature at 37° C. After 2 h of MCAO, the suture was removed to restore blood flow. In sham group, the same surgical procedure was performed except that the suture was introduced into the external carotid artery but not advanced. After surgery, the incision was sutured and the rats were returned to their cage with free access to water and food.
Neurological function of ischemic rats was graded on modified Neurological Severity Score (mNSS) system in a range of 0 to 18 (normal score, 0; maximal deficit score, 18). The mNSS system is a composite evaluation of motor and sensory function, balance impairment and reflex abnormality of ischemic animals (Chen et al., 2001 Intravenous administration of human umbilical cord blood reduces behavioral deficits after stroke in rats. Stroke 32:2682-8.). In the severity scores of injury, 1 score point is awarded for the inability to perform the test or for the lack of a tested reflex; thus, the higher the score, the more severe is the injury.
At 3 days after ischemia, whole brains were rapidly removed. The brain were sliced into 2-mm-thick coronal sections and stained with 1% 2,3,5-triphenyltetrazoliumchloride (TTC, Sigma) at 37° C. for 30 minutes in the dark, followed by fixation with 4% paraformaldehyde (PFA) at 4° C. overnight. The sections were scanned with scanner connected to a computer. The unstained areas, defined as infarct tissue, were calculated by using an image analysis program. The infarct volume was calculated by measuring the unstained area in each slice. The infarct area in each slice was calculated by subtracting the normal ipsilateral (ischemic) area from that of the contralateral (non-ischemic) hemisphere to reduce errors due to cerebral edema and was presented as a percentage relative to the area of the contralateral hemisphere.
The contralateral hemispheric volume was used as a control for calculation of ischemia-induced brain edema in the ipsilateral hemisphere. A net difference in hemispheric volumes was gained by subtracting the volume of the […] from that of the infracted hemisphere. Brain swelling was expressed as a percentage of the net difference in ischemic hemispheric volume over the contralateral hemispheric volume.
Rats were subjected to middle cerebral artery occlusion (MCAO) to induce focal cerebral ischemia. Neurological functions of these ischemic rats were then graded on a modified Neurological Severity Score (mNSS) system from a range of 0 to 18 (normal score, 0; maximal deficit score, 18). The mNSS system is a composite evaluation of motor and sensory function, balance impairment and reflex abnormality of ischemic animals. […]
3 days after ischemia, whole brains were rapidly removed, sliced into 2-mm-thick coronal sections, stained with 1% 2,3,5-triphenyltetrazoliumchloride (TTC) and fixed (FIG. 6a). […] Infarct volume was measured in the coronal brain sections.
Infarct volume and edema volume were also measured. […]

T1 sequence (P29274 whole entry): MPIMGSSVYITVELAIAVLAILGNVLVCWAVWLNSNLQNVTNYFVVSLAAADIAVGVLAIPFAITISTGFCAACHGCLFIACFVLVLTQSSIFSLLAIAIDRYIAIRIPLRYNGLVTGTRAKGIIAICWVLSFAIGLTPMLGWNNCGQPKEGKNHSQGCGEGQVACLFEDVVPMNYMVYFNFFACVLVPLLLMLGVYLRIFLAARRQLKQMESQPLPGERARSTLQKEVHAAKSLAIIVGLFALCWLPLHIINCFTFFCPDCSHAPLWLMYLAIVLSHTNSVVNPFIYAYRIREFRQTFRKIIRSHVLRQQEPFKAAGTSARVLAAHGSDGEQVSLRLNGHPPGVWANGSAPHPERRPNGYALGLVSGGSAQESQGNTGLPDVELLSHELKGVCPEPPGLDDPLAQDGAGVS

CC[C@H]1N[C@@H](CC(C)C)C(CC)(CC)O1 [LC-02]
inhibition at 10 µM (Adenosine A2A): 6%
inhibition at 10 µM (Adenosine A1): 5%
inhibition at 10 µM (adenosine A3 receptor): 30%
inhibition at 10 µM (Opioid (delta)): 18%
inhibition at 10 µM (Opioid (mu)): 14%
% of inhibition of ligand binding (opioid kappa receptor; 10 μM, [3H]U 69593, rat kappa receptor overexpressing cells): 26%
inhibition at 10 µM (opioid kappa receptor; [3H]U 69593, rat kappa receptor overexpressing cells): 30%
total distance travelled in the open field (mice): did not significantly differ
edema volume (% of the ipsilateral hemisphere) (MCAO rats; 35 mg/kg): 2.44±0.43%
infarct volume (MCAO rats; 35 mg/kg): 34.45%±3.38%
functional recovery, modified Neurological Severity Score (mNSS) (MCAO rats; 70 mg/kg oral, 24, 48 and 72 hours after MCAO, vs vehicle): significantly improved functional recovery
edema volume (% of the ipsilateral hemisphere) (MCAO rats; 70 mg/kg): 2.85±0.80%
infarct volume (MCAO rats; 70 mg/kg, P<0.01): 18.49%±2.34%

Reference: patent publication US8722714B2, “Oxazolidine derivatives as NMDA antagonists” (The Honk Kong University of Science and Technology, priority 2008, dated 2014)
